The values below come from patent US11192893B2, “Pyrazoloquinazolinone antitumor agents” (The Rockefeller University, priority 2017, dated 2021).

Molecules are shown by their SMILES. pIC50: −log10 of the molar value.

The subject of the assay is Hedgehog pathway activity. Description: Shh-Light luciferase reporter assay of Hedgehog pathway activity (Shh-Light2 cells, SAG-stimulated). In kind it is cell-based. Particulars: for activity at 20 µM: 20 μM compound, read-out: SHH-light % residual @ 20 μM; for activity at 20 µM / activity at 2 µM: SAG 500 nM; for pIC50: Table 2, SAG 500 nM, 28-32 hr treatment, read-out: Shh-light IC50; for activity at 2 µM: 2 μM compound, read-out: SHH-light % residual @ 2 μM. As to the method: To examine the inhibition of dynein 2 in cell-based assays, an established luciferase reporter-based cellular assay of Hedgehog pathway activity was employed [Taipale et al., Nature. 2000; 406(6799): 1005-9]. Signaling in this pathway depends on the function of dynein 2. In this setting, expression of luciferase driven by Hedgehog pathway activity was inhibited by compound 5 with an IC50 value of 0.9±0.5 μM. […] The potencies of these compounds in this cell-based assay match the rank-order of dynein 2 inhibition in vitro. In these assays, Hedgehog pathway activity was stimulated using the Synthetic Agonist of Smoothened (SAG). This compound competes with many Hedgehog pathway inhibitors for binding to Smoothened, a key node in the signaling pathway.
SHH-Light Assay (Steinman et al. eLife 2017; 6:e25174.)
NIH-3T3 cells stably expressing a luciferase reporter downstream of a Gli binding site (Shh-Light2 cells, RRID: CVCL_2721) were maintained in DMEM with 10% bovine calf serum (BCS). Cells were seeded at a density of 30,000 cells/well in 96-well tissue culture-treated plates (Corning, cat #353072) in 100 μL in DMEM+10% BCS, and incubated for 48 hr (Taipale et al., 2000). Wells were washed briefly with PBS. Next […] of low serum media (DMEM+0.5% BCS) containing smoothened agonist (SAG, 500 nM), and either solvent control (0.2% DMSO) or test compound (serial three-fold dilutions of each inhibitor starting from 20 μM) were added to the wells. After 28-32 hr of inhibitor treatment, cells were washed with 50 μL PBS and lysed for >30 min in 30 μL Passive Lysis Buffer (Promega Dual Luciferase kit, cat E1910). 5 uL of each lysate was transferred to white, solid-bottom 96-well plates (Greiner, cat #655075), followed by rapid addition (within 30 s) of 30 μL of Luciferase Assay Reagent using a multichannel pipette. Luminescence for each condition was read using a Synergy Neo plate reader (5 s integration time per well). Cell line identity was confirmed by measurement of the degree of response to Hedgehog pathway stimulation by the synthetic agonist SAG and using previously published values from our groups and others as references (Firestone et al., 2012; Hyman et al., 2009).
(In a reporter assay the amount or activity of a reporter protein is the signal.)

In the case of `COc1ccc2[nH]c3c(C(N)=O)c(-c4ccc(Cl)cc4Cl)nn3c(=O)c2c1` [Example 39, 2-(2,4-Dichlorophenyl)-7-methoxy-9-oxo-4H-pyrazolo[5,1-b]quinazoline-3-carboxamide], the activity at 20 µM is 121% and the negative logarithm of the IC50 (pIC50) is 4.89.

In the case of `COc1ccc2[nH]c3c(C#N)c(-c4ccc(Cl)cc4Cl)nn3c(=O)c2c1` [Example 40, 2-(2,4-Dichlorophenyl)-7-methoxy-9-oxo-4H-pyrazolo[5,1-b]quinazoline-3-carbonitrile], the activity at 2 µM was 37%, the activity at 20 µM stood at 14% and the pIC50 is 6.23.

As for `NC(=O)c1c(COc2ccc(Cl)cc2)nn2c(=O)c3ccccc3[nH]c12` [Example 41, 2-[(4-Chlorophenoxy)methyl]-9-oxo-4H-pyrazolo[5,1-b]quinazoline-3-carboxamide], the activity at 2 µM was determined as 73.7%.

On to `N#Cc1c(COc2ccc(Cl)cc2)nn2c(=O)c3ccccc3[nH]c12` [Example 42, 2-[(4-Chlorophenoxy)methyl]-9-oxo-4H-pyrazolo[5,1-b]quinazoline-3-carbonitrile], for which the activity at 2 µM stood at 105% and the activity at 20 µM stood at 4.5%.

Take `NC(=O)c1c(CCC(Cl)(Cl)Cl)nn2c(=O)c3ccccc3[nH]c12` [Example 43, 9-Oxo-2-(3,3,3-trichloropropyl)-4,9-dihydropyrazolo[5,1-b]quinazoline-3-carboxamide]: the activity at 2 µM is 65% and the activity at 20 µM was found to be 15.4%.

Turning to `N#Cc1c(CCC(Cl)(Cl)Cl)nn2c(=O)c3ccccc3[nH]c12` [Example 44, 9-Oxo-2-(3,3,3-trichloropropyl)-4H-pyrazolo[5,1-b]quinazoline-3-carbonitrile], the activity at 2 µM worked out at 45.8% and the activity at 20 µM came out at 3.4%.

In the case of `NC(=O)c1c(CC2CCCCC2)nn2c(=O)c3ccccc3[nH]c12` [Example 45, 2-(Cyclohexylmethyl)-9-oxo-4H-pyrazolo[5,1-b]quinazoline-3-carboxamide], the activity at 2 µM was 82.4% and the activity at 20 µM was found to be 4%.

For the molecule `N#Cc1c(CC2CCCCC2)nn2c(=O)c3ccccc3[nH]c12` [Example 46, 2-(Cyclohexylmethyl)-9-oxo-4H-pyrazolo[5,1-b]quinazoline-3-carbonitrile], the activity at 2 µM turned out to be 67.1% and the activity at 20 µM turned out to be 5%.

`NC(=O)c1c(CCOc2ccc(Cl)cc2)nn2c(=O)c3ccccc3[nH]c12` [Example 47, 2-[2-(4-Chlorophenoxy)ethyl]-9-oxo-4H-pyrazolo[5,1-b]quinazoline-3-carboxamide]: the activity at 2 µM is 54.7% and the activity at 20 µM came to 11%.

As to `N#Cc1c(CCOc2ccc(Cl)cc2)nn2c(=O)c3ccccc3[nH]c12` [Example 48, 2-[2-(4-Chlorophenoxy)ethyl]-9-oxo-4H-pyrazolo[5,1-b]quinazoline-3-carbonitrile], the activity at 2 µM was 75.5% and the activity at 20 µM is 10.9%.

For `NC(=O)c1c(-c2ccc(Cl)cc2Cl)nn2c(=O)c3c(OCc4ccccc4)cccc3[nH]c12` [Example 49, 8-Benzyloxy-2-(2,4-dichlorophenyl)-9-oxo-4H-pyrazolo[5,1-b]quinazoline-3-carboxamide], the activity at 2 µM worked out at 78.3% and the activity at 20 µM amounted to 10.8%.

For `N#Cc1c(-c2ccc(Cl)cc2Cl)nn2c(=O)c3c(OCc4ccccc4)cccc3[nH]c12` [Example 50, 8-Benzyloxy-2-(2,4-dichlorophenyl)-9-oxo-4H-pyrazolo[5,1-b]quinazoline-3-carbonitrile], the activity at 2 µM came out at 75.8%.

On to `NC(=O)c1c(C2CCC(F)(F)CC2)nn2c(=O)c3ccccc3[nH]c12` [Example 51, 2-(4,4-Difluorocyclohexyl)-9-oxo-4H-pyrazolo[5,1-b]quinazoline-3-carboxamide], for which the activity at 2 µM amounted to 92.4% and the activity at 20 µM is 103%.

Take `N#Cc1c(C2CCC(F)(F)CC2)nn2c(=O)c3ccccc3[nH]c12` [Example 52, 2-(4,4-Difluorocyclohexyl)-9-oxo-4H-pyrazolo[5,1-b]quinazoline-3-carbonitrile]: the activity at 2 µM came out at 110% and the activity at 20 µM was 76.9%.

Regarding `NC(=O)c1c(CC2CC2)nn2c(=O)c3ccccc3[nH]c12` [Example 53, 2-(Cyclopropylmethyl)-9-oxo-4H-pyrazolo[5,1-b]quinazoline-3-carboxamide], the activity at 2 µM is 75.2% and the activity at 20 µM came out at 123%.

For the molecule `N#Cc1c(CC2CC2)nn2c(=O)c3ccccc3[nH]c12` [Example 54, 2-(Cyclopropylmethyl)-9-oxo-4H-pyrazolo[5,1-b]quinazoline-3-carbonitrile], the activity at 2 µM came to 81.7%.

Take `NC(=O)c1c(-c2ccc(Cl)cc2Cl)nn2c(=O)c3cc(OCc4ccccc4)ccc3[nH]c12` [Example 55, 7-Benzyloxy-2-(2,4-dichlorophenyl)-9-oxo-4H-pyrazolo[5,1-b]quinazoline-3-carboxamide]: the activity at 2 µM turned out to be 62.8%.

As to `N#Cc1c(-c2ccc(Cl)cc2Cl)nn2c(=O)c3cc(OCc4ccccc4)ccc3[nH]c12` [Example 56, 7-Benzyloxy-2-(2,4-dichlorophenyl)-9-oxo-4H-pyrazolo[5,1-b]quinazoline-3-carbonitrile], the activity at 2 µM was determined as 49.6%.

On to `NC(=O)c1c(CCC(F)(F)F)nn2c(=O)c3ccccc3[nH]c12` [Example 57, 9-Oxo-2-(3,3,3-trifluoropropyl)-4H-pyrazolo[5,1-b]quinazoline-3-carboxamide], for which the activity at 2 µM was 67.9%.

`N#Cc1c(CCC(F)(F)F)nn2c(=O)c3ccccc3[nH]c12` [Example 58, 9-Oxo-2-(3,3,3-trifluoropropyl)-4H-pyrazolo[5,1-b]quinazoline-3-carbonitrile]: the activity at 2 µM is 55.5% and the activity at 20 µM is 35.1%.

Take `N#Cc1c(C2(C(F)(F)F)CC2)nn2c(=O)c3ccccc3[nH]c12` [Example 59, 9-Oxo-2-[1-(trifluoromethyl)cyclopropyl]-4H-pyrazolo[5,1-b]quinazoline-3-carbonitrile]: the activity at 2 µM was found to be 89.3% and the activity at 20 µM worked out at 45.1%.

On to `NC(=O)c1c(CCCO)nn2c(=O)c3ccccc3[nH]c12` [Example 60, 2-(3-Hydroxypropyl)-9-oxo-4H-pyrazolo[5,1-b]quinazoline-3-carboxamide], for which the activity at 2 µM is 78.1% and the activity at 20 µM is 99%.

For `O=C(O)c1c(-c2ccc(Cl)cc2Cl)nn2c1[nH]c(=O)c1ccccc12` [Example 61, 2-(2,4-Dichlorophenyl)-5-oxo-4H-pyrazolo[1,5-a]quinazoline-3-carboxylic acid], the activity at 20 µM was 66.7%.

Consider `NC(=O)c1c(-c2ccc(Cl)cc2Cl)nn2c1[nH]c(=O)c1ccccc12` [Example 62, 2-(2,4-Dichlorophenyl)-5-oxo-4H-pyrazolo[1,5-a]quinazoline-3-carboxamide], for which the activity at 20 µM is 42.1%.

With `COc1ccc2c(c1)c(=O)[nH]c1c(C#N)c(C3(c4ccc(Cl)cc4)CC3)nn12` [Example 64, 2-[1-(4-Chlorophenyl)cyclopropyl]-7-methoxy-5-oxo-4H-pyrazolo[1,5-a]quinazoline-3-carbonitrile], the activity at 2 µM stood at 91.6% and the activity at 20 µM amounted to 90.4%.

For the molecule `COc1ccc2c(c1)c(=O)[nH]c1c(C#N)c(-c3ccc(Cl)cc3Cl)nn12` [Example 65, 2-(2,4-Dichlorophenyl)-7-methoxy-5-oxo-4H-pyrazolo[1,5-a]quinazoline-3-carbonitrile], the activity at 2 µM worked out at 76.9% and the activity at 20 µM is -1%.

`N#Cc1ccc2c(c1)c(=O)[nH]c1c(C#N)c(C3(c4ccc(Cl)cc4)CC3)nn12` [Example 66, 2-[1-(4-Chlorophenyl)cyclopropyl]-5-oxo-4H-pyrazolo[1,5-a]quinazoline-3,7-dicarbonitrile]: the activity at 2 µM was 39.6%, the activity at 20 µM is -3.8% and the pIC50 was 5.82.

With `COC(=O)c1c(-c2ccc(Cl)cc2Cl)nn2c(=O)c3ccccc3[nH]c12` [Example 67, Methyl 2-(2,4-dichlorophenyl)-9-oxo-4H-pyrazolo[5,1-b]quinazoline-3-carboxylate], the activity at 20 µM stood at 80.3%.

Consider `CC(C)OC(=O)c1c(-c2ccc(Cl)cc2Cl)nn2c(=O)c3ccccc3[nH]c12` [Example 68, Isopropyl 2-(2,4-dichlorophenyl)-9-oxo-4H-pyrazolo[5,1-b]quinazoline-3-carboxylate], for which the activity at 2 µM was found to be 90.5% and the activity at 20 µM was 110%.

Broadly, the pIC50 is the negative decadic logarithm of the IC50, by convention in mol/L.
